Consider six molecules from PubChem BioAssay AID2060898 (Molecular Pharmacology Branch, DTP, NCI, 2025).

For the experiment, the system named is 616215-338-R-J1-PDC complex spheroid viability. The experiment can be described thus: Anticancer human tumor 616215-338-R-J1-PDC patient-derived colon adenocarcinoma cell line growth inhibition [RAS]. The following applies: for viability, T/C: stronger effect = lower value; for IC50: curve of compound. From the text:
RAS pathway inhibitors in Combinations in Complex Spheroids
A high-throughput screen of multi-cell type tumor spheroids was designed to identify active combinations of RAS pathway inhibitors and targeted small molecules. Complex spheroids include a stromal component modeled by human endothelial cells (HUVEC) and fibroblasts modeled by human mesenchymal stem cells (MSCs). The concentration ranges selected for each drug and investigational agent were based upon clinically achievable concentrations if the clinical Cmax of the agent was known.
Compounds. The drugs and investigational agents: abemaciclib (NSC768073), cobimetinib (NSC768068), divarasib (GDC6063, NSC841802), docetaxel (NSC628503), GDC-1971 (RLY-1971, NSC841576), gemcitabine (NSC613327), inavolisib (NSC800729), ipatasertib (NSC767898), KB-0742 (NSC834161), MRTX-1133 (NSC836407), osimertinib (NSC779217), RMC-4630 (NSC839698), RMC-6236 (NSC851965), RMC-6291 (NSC852671), Ro-3306 (NSC812927), sapanisertib (NSC764658), SN-38 (NSC673596), staurosporine (NSC755774), SY5609 (NSC837396), and tovorafenib (DAY101, NSC766906), were obtained from the National Cancer Institute (NCI) Developmental Therapeutics Program Chemical Repository. The FDA-approved anticancer drug set is available from the NCI Developmental Therapeutics Program. […] The stock solutions were prepared in dimethyl sulfoxide (DMSO, Sigma-Aldrich, St. Louis, MO, cat. D2650) at 800-fold the tested concentration and stored at -70 degrees C prior to their use. All drugs and investigational agents were tested over a range starting from a high concentration at or near the clinical Cmax and decreasing in half-log increments. If the clinical Cmax for an agent had not been determined, the highest concentration tested was 10 microM.
Cell Culture. All cells were maintained in an incubator at 37 degrees C and 5% CO2 with 95% humidity. The PDC lines were cultured according to standard operating procedures established by the NCI PDMR. All PDCs were thawed and cultured in Matrigel-coated flasks prepared with a working solution of 1X Ham's F-12 nutrient mix, without supplementation (Invitrogen, Waltham, MA, cat. 11765054), 100 U/mL penicillin-streptomycin (Invitrogen, cat. 15140122), and 2.5% Matrigel (Corning Inc., Corning, NY, cat. 354248) for the first three passages. The 362531-283-R-J2-PDC and 782815-120-R-J1-PDC lines were cultured in 6C/Colon 1B media, which includes advanced DMEM/F-12 (Thermo Fisher Scientific, cat. 12634028), 10 mM HEPES (Thermo Fisher Scientific, cat. 15630080), 1X GlutaMAX supplement (Thermo Fisher Scientific, cat. 35050061), 0.1 mg/mL primocin (InvivoGen, San Diego, CA, cat. ant-pm-2), 10% defined fetal bovine serum, heat inactivated (HyClone Laboratories Inc., Logan, UT, cat. SH30070.03HI), 50% L-WRN conditioned media (ATCC, cat. CRL-3276), 1.25 mM N-Acetyl-L-cysteine (Sigma-Aldrich, cat. A9165), 10 mM nicotinamide (Sigma-Aldrich, cat. N0636), 1X B-27 supplement (Thermo Fisher Scientific, cat. 17504044), 1X N-2 supplement (Thermo Fisher Scientific, cat. 17502048), 50 ng/mL human EGF (Thermo Fisher Scientific, cat. PHG0311), and 10 microM Y-27632 dihydrochloride (Tocris Bioscience, cat. 1254). The K12877-001-R-J1-PDC line was cultured in 6I media, which includes all 6C/Colon 1B media plus 10 ng/mL human FGF-10 (PeproTech, cat. 100-26), 1 ng/mL human FGF-2 (PeproTech, cat. 100-18B), 1 µM prostaglandin E2 (Tocris Bioscience, cat. 2296), […] hydrocortisone (Sigma-Aldrich, cat. H4001), and […] bovine insulin (Sigma-Aldrich, cat. I6634). The K86415-001-R-J1-PDC line was cultured in 6D media, which includes all 6C/Colon 1B media components minus the L-WRN conditioned media. The 485176-168-R4-J1-PDC was cultured in PANC media, which includes all 6C/Colon 1B media plus 100 ng/mL human FGF-10 (PeproTech, cat. 100-26), 500 nM SB-431542 (Selleckchem, cat. S1067), and 10 nM gastrin (Tocris Bioscience, cat. 3006). […]

The structures appear in SMILES notation. “And” between values parts separate entries of the source, which are not always exact repeats. Equal values may be shown once.
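Further: spheroids exposed to agents for seven days before viability readout.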

The viability, T/C is the result in the treated group divided by that in the control group, in per cent. In general, IC50 refers to the concentration that gives 50% inhibition. Take `CC(=O)OC12COC1CC(O)C1(C)C(=O)C(O)C3=C(C)C(OC(=O)C(O)C(NC(=O)OC(C)(C)C)c4ccccc4)CC(O)(C(OC(=O)c4ccccc4)C21)C3(C)C` (stereo not drawn): the IC50 is < 0.0316 µM. The viability, T/C (compound 0.0316 µM) is 27.8% [middle of 4 runs]. Moreover, the viability, T/C (compound 0.1 µM) is 21% [middle of 4 runs]. In addition, the viability, T/C (compound 0.316 µM) is 19.1% (2×) and 21.2% and 18.8%. Moreover, the viability, T/C (compound 1 µM) was 21.3% [middle of 4 runs]. Where the note is “compound 3.16 µM”, the viability, T/C is 22.3% [middle of 4 runs]. Besides, the viability, T/C (compound 10 µM) is 28.5% [middle of 4 runs].
As to `CC1(O)CCCC1n1c(=O)c(C(F)F)cc2cnc(NC3CCN(S(C)(=O)=O)CC3)nc21` (stereo not drawn), the IC50 is 1.23 µM [middle of 4 runs]. Moreover, the viability, T/C (compound 0.0316 µM) was 112% [middle of 4 runs]. Besides, the viability, T/C (compound 0.1 µM) was 103% [middle of 4 runs]. For the same molecule, where the note is “compound 0.316 µM”, the viability, T/C is 59.3% [middle of 4 runs]. Also, the viability, T/C (compound 1 µM) was 56.1% [middle of 4 runs]. Also, the viability, T/C (compound 3.16 µM) is 48.9% [middle of 4 runs]. Further, the viability, T/C (compound 10 µM) was 2.6% [middle of 4 runs].
As to `CCC(CC)c1cc(NC2CCC(N)C2)n2nccc2n1` (stereo not drawn), the concentration for half-maximal inhibition (IC50) is 1.8 µM [middle of 4 runs]. For the same molecule, the viability, T/C (compound 0.0316 µM) was 109% [middle of 4 runs]. Also, for the setting “compound 0.1 µM”, the viability, T/C is 99.7% and 102% (2×) and 93.3%. For the same molecule, the viability, T/C (compound 0.316 µM) was 93.8% [middle of 4 runs]. Further, where the note is “compound 1 µM”, the viability, T/C is 107% [middle of 4 runs]. Besides, the viability, T/C (compound 3.16 µM) was 0.63% [middle of 4 runs]. In addition, the viability, T/C (compound 10 µM) was 0.37% [middle of 4 runs].
With `C[C@@H](NC(=O)c1ncnc(N)c1Cl)c1ncc(C(=O)Nc2cc(C(F)(F)F)c(Cl)cn2)s1`, the IC50 is > 10 µM and 8.87 µM. Also, the viability, T/C (compound 0.0316 µM) is 102% [middle of 4 runs]. Also, under “compound 0.1 µM”, the viability, T/C was 110% [middle of 4 runs]. Moreover, the viability, T/C (compound 0.316 µM) is 112% [middle of 4 runs]. Under “compound 1 µM”, the viability, T/C was 124% and 105% and 112% (2×).
Regarding `Cc1nc(N2CCC3(CC2)COC(C)C3N)c(CO)nc1Sc1ccnc(N)c1Cl` (stereo not drawn), the IC50 was > 10 µM. The viability, T/C (compound 0.0316 µM) was 105% (2×) and 103% and 97.3%. Further, the viability, T/C (compound 0.1 µM) was 103% (2×) and 106% and 97.7%. The viability, T/C (compound 0.316 µM) is 109% [middle of 4 runs]. Also, the viability, T/C (compound 1 µM) is 108% [middle of 4 runs]. Further, the viability, T/C (compound 3.16 µM) is 86.9% [middle of 4 runs]. Besides, the viability, T/C (compound 10 µM) was 85.4% [middle of 4 runs].
In the case of `NC1c2ccccc2OC12CCN(c1cnc3c(N4CCCc5ncccc54)n[nH]c3n1)CC2` (stereo not drawn), the IC50 is > 10 µM and 3.16 µM and 6.76 µM. For the same molecule, the viability, T/C (compound 0.0316 µM) is 114% [middle of 4 runs]. Also, the viability, T/C (compound 0.316 µM) was 92.2% [middle of 4 runs]. Further, the viability, T/C (compound 1 µM) is 76.5% [middle of 4 runs]. The viability, T/C (compound 10 µM) was 55.8% [middle of 4 runs].
